# Active and inactive are the calls of the source. The rule behind the calls is not given here.
# Tests used:
# [1] = test system: Human immunodeficiency virus 1; test: Antiviral activity against HIV1 NL4-3 pseudovirus infected in human TZM-bl cells assessed as inhibition of viral entry into cells after 48 hrs by single-cycle infection assay; format: functional, organism-based; settings: Human immunodeficiency virus 1, NL4-3, TZM-bl
# [2] = target: Envelope glycoprotein gp160 (Human immunodeficiency virus type 1 group M subtype B (isolate HXB2)(HIV-1)) (UniProt P04578); test: Binding affinity to HIV-1 HXB2 gp41 N-terminal heptad repeat assessed as thermostability of compound after 30 mins by CD spectroscopic analysis; settings: Human immunodeficiency virus 1
# [3] = Thermostability of the compound in PBS assessed as melting temperature at 20 uM by CD spectroscopic analysis; format: physicochemical; settings: buffer
# [4] = target: Envelope glycoprotein gp160 (Human immunodeficiency virus type 1 group M subtype B (isolate HXB2)(HIV-1)) (UniProt P04578); test: Binding affinity to HIV-1 HXB2 gp41 N-terminal heptad repeat assessed as thermostability of protein-compound complex at 10 uM after 30 mins by CD spectroscopic analysis; settings: Human immunodeficiency virus 1
# [5] = test system: Human immunodeficiency virus 1; test: Antiviral activity against wild type HIV1 NL4-3 infected in human TZM-bl cells assessed as inhibition of viral replication after 2 days by luciferase reporter gene assay; format: functional, organism-based; settings: Human immunodeficiency virus 1, NL4-3, TZM-bl, 48 h
# [6] = test system: Human immunodeficiency virus 1; test: Antiviral activity against HIV-1 ZM214M.15 pseudovirus infected in human TZM-bl cells assessed as inhibition of viral entry into cells after 48 hrs by single-cycle infection assay; format: functional, organism-based; settings: Human immunodeficiency virus 1, ZM214M.15, TZM-bl
# [7] = test system: Human immunodeficiency virus 1; test: Antiviral activity against HIV-1 SF162 pseudovirus infected in human TZM-bl cells assessed as inhibition of viral entry into cells after 48 hrs by single-cycle infection assay; format: functional, organism-based; settings: Human immunodeficiency virus 1, SF162, TZM-bl
# [8] = test system: Human immunodeficiency virus 1; test: Antiviral activity against HIV-1 SC42261.8 pseudovirus infected in human TZM-bl cells assessed as inhibition of viral entry into cells after 48 hrs by single-cycle infection assay; format: functional, organism-based; settings: Human immunodeficiency virus 1, SC42261.8, TZM-bl
# [9] = target: Envelope glycoprotein gp160 (Human immunodeficiency virus 1) (UniProt Q72502); test: Binding affinity to HIV1 NL4-3 gp41 N-terminal heptad repeat G36D mutant after 30 mins by CD spectroscopic analysis
# [10] = target: Envelope glycoprotein gp160 (Human immunodeficiency virus 1) (UniProt Q72502); test: Binding affinity to HIV1 NL4-3 gp41 N-terminal heptad repeat I37T mutant after 30 mins by CD spectroscopic analysis
# [11] = test system: Envelope glycoprotein gp160 (Human immunodeficiency virus 1), Q72502 [V38A]; test: Binding affinity to HIV1 NL4-3 gp41 N-terminal heptad repeat V38A mutant after 30 mins by CD spectroscopic analysis
# [12] = target: Envelope glycoprotein gp160 (Human immunodeficiency virus 1) (UniProt Q72502); test: Binding affinity to HIV1 NL4-3 gp41 N-terminal heptad repeat Q40H mutant after 30 mins by CD spectroscopic analysis
# [13] = target: Envelope glycoprotein gp160 (Human immunodeficiency virus 1) (UniProt Q72502); test: Binding affinity to HIV1 NL4-3 gp41 N-terminal heptad repeat N43K mutant after 30 mins by CD spectroscopic analysis
# [14] = target: Envelope glycoprotein gp160 (Human immunodeficiency virus 1) (UniProt Q72502); test: Binding affinity to HIV1 NL4-3 gp41 N-terminal heptad repeat I37T/N43K double mutant after 30 mins by CD spectroscopic analysis
# [15] = target: Envelope glycoprotein gp160 (Human immunodeficiency virus 1) (UniProt Q72502); test: Binding affinity to HIV1 NL4-3 gp41 N-terminal heptad repeat V38A/N42T double mutant after 30 mins by CD spectroscopic analysis
# [16] = target: Envelope glycoprotein gp160 (Human immunodeficiency virus type 1 group M subtype B (isolate HXB2)(HIV-1)) (UniProt P04578); test: Binding affinity to HIV-1 HXB2 gp41 N-terminal heptad repeat assessed as increase in 6-helix bundle thermostability at 10 uM after 30 mins by CD spectroscopic analysis; settings: Human immunodeficiency virus 1
# Serum = test: Metabolic stability in Sprague-Dawley rat serum at 4 mg/kg, ip measured at 0.5 to 4 hrs post dose; format: ADME, organism-based; settings: in vivo
# [17] = target: Envelope glycoprotein gp160 (Human immunodeficiency virus type 1 group M subtype B (isolate HXB2)(HIV-1)) (UniProt P04578); test: Binding affinity to HIV-1 HXB2 gp41 N-terminal heptad repeat assessed as thermostability of compound at 10 uM after 30 mins by CD spectroscopic analysis; settings: Human immunodeficiency virus 1
substance,measurement,setting,value
H-MTWEAWDRAIAEYAARIEALIR-OH,IC50,[1],86.7 nM
same,Tm,[2],68.2 °C
H-MTWEAWDRAIAEYAARIEALIRAAQEQQEKNEAALREL-OH,Stability,[3],Stable
same,Tm,[4],88.1 °C
same,IC50,[1],0.46 nM
same,IC50,[5],0.25 nM
same,IC50,[6],0.74 nM
same,IC50,[7],4.98 nM
same,IC50,[8],1.65 nM
same,Activity,[9],Active
same,Activity,[10],Active
same,Activity,[11],Active
same,Activity,[12],Active
same,Activity,[13],Active
same,Activity,[14],Active
same,Activity,[15],Active
same,Activity,[16],Active
same,Stability,Serum,Unstable
H-MTWEEWDKKIEEYTKKIEELI-OH,IC50,[1],4.26 nM
same,IC50,[5],3.13 nM
same,Tm,[17],76.2 °C
H-MTWEEWDKKIEEYTKKIEELIKKS-OH,IC50,[1],1.29 nM
same,IC50,[5],0.9 nM
same,Tm,[17],78.2 °C

# Reference: ChEMBL document CHEMBL3600303, “The N-Terminal T-T Motif of a Third-Generation HIV-1 Fusion Inhibitor Is Not Required for Binding Affinity and Antiviral Activity” (J Med Chem, 2015)
